Reference: ChEMBL document CHEMBL1146569, “The pterocellins, novel bioactive alkaloids from the marine bryozoan Pterocella vesiculosa” (J Nat Prod, 2003)

Experiments:
Type in all cases: functional
NCI-H226 = assay: Growth inhibition of human NCI-H226 cells
HOP-62 = assay: Growth inhibition of human HOP62 cells
MOLT-4 = assay: Growth inhibition of human MOLT4 cells
Pseudomonas aeruginosa = assay: Antimicrobial activity against Pseudomonas aeruginosa assessed per disk
KM12 = assay: Growth inhibition of human KM12 cells
[1] = system: Trichophyton mentagrophytes; assay: Antimicrobial activity against Trichophyton mentagrophytes assessed per disk
COLO 205 = assay: Growth inhibition of human COLO205 cells
TK-10 = assay: Growth inhibition of human TK10 cells
OVCAR-5 = assay: Growth inhibition of human OVCAR5 cells
OVCAR-3 = assay: Growth inhibition of human OVCAR-3 cells
[2] = Growth inhibition of human […] cells
MDA-N = assay: Growth inhibition of human MDA-N cells
DU-145 = assay: Growth inhibition of human DU145 cells
T47D = assay: Growth inhibition of human T47D cells
NCI-H322M = assay: Growth inhibition of human NCI-H322M cells
RXF 393 = assay: Growth inhibition of human RXF393 cells
SF-539 = assay: Growth inhibition of human SF539 cells
SNB-19 = assay: Growth inhibition of human SNB19 cells
Escherichia coli = assay: Antimicrobial activity against Escherichia coli assessed per disk
NCI-H522 = assay: Growth inhibition of human NCI-H522 cells
OVCAR-4 = assay: Growth inhibition of human OVCAR4 cells
K562 = assay: Growth inhibition of human K562 cells
CAKI-1 = assay: Growth inhibition of human Caki1 cells
IGROV-1 = assay: Growth inhibition of human IGROV1 cells
SF-295 = assay: Growth inhibition of human SF295 cells
BT-549 = assay: Growth inhibition of human BT549 cells
SK-MEL-5 = assay: Growth inhibition of human SK-MEL-5 cells
M14 = assay: Growth inhibition of human M14 cells
ACHN = assay: Growth inhibition of human ACHN cells
CCRF-CEM = assay: Growth inhibition of human CCRF-CEM cells
NCI-H460 = assay: Growth inhibition of human NCI-H460 cells
Malme-3M = assay: Growth inhibition of human MALME-3M cells
UACC-257 = assay: Growth inhibition of human UACC257 cells
HCT-116 = assay: Growth inhibition of human HCT116 cells
MCF7 = assay: Growth inhibition of human MCF7 cells
A549 = assay: Growth inhibition of human A549 cells
SNB-75 = assay: Growth inhibition of human SNB75 cells
786-0 = assay: Growth inhibition of human 786-0 cells
HOP-92 = assay: Growth inhibition of human HOP92 cells
MDA-MB-231 = assay: Growth inhibition of human MDA-MB-231 cells
UACC-62 = assay: Growth inhibition of human UACC62 cells
MDA-MB-435 = assay: Growth inhibition of human MDA-MB-435 cells
Candida albicans = assay: Antimicrobial activity against Candida albicans assessed per disk
SK-MEL-28 = assay: Growth inhibition of human SK-MEL-28 cells
SK-OV-3 = assay: Growth inhibition of human SKOV3 cells
[3] = Growth inhibition of human Hs 578T cells
[4] = read-out: LC50 (the source's name)

COc1cn2c(cc1=O)C(=O)c1ccnc(Cc3ccccc3)c1-2 [PTEROCELLIN B]
GI50 (NCI-H226): 1400 nM
TGI (NCI-H226): 3500 nM
CC50 (NCI-H226; [4]): 8400 nM
GI50 (HOP-62): 1000 nM
TGI (HOP-62): 2100 nM
CC50 (HOP-62; [4]): 4600 nM
GI50 (MOLT-4): 1400 nM
LC50 (concentration killing 50% of cells) (MOLT-4): 5600 nM
TGI (MOLT-4): 2900 nM
MIC (Pseudomonas aeruginosa): >60 µg
GI50 (KM12): 600 nM
TGI (KM12): 1900 nM
CC50 (KM12; [4]): 4500 nM
MIC [1]: 3.9 µg
GI50 (COLO 205): 700 nM
TGI (COLO 205): 2300 nM
CC50 (COLO 205; [4]): 6100 nM
GI50 (TK-10): 1500 nM
TGI (TK-10): 2900 nM
CC50 (TK-10; [4]): 5600 nM
GI50 (OVCAR-5): 1200 nM
TGI (OVCAR-5): 2400 nM
CC50 (OVCAR-5; [4]): 4900 nM
GI50 (OVCAR-3): 200 nM
TGI (OVCAR-3): 600 nM
CC50 (OVCAR-3; [4]): 3200 nM
GI50 [2]: 1500 nM
TGI [2]: 4900 nM
CC50 [2, 4]: > 100000 nM
GI50 (MDA-N): 200 nM
TGI (MDA-N): 300 nM
CC50 (MDA-N; [4]): 600 nM
GI50 (DU-145): 200 nM
TGI (DU-145): 300 nM
CC50 (DU-145; [4]): 600 nM
GI50 (T47D): 1300 nM
TGI (T47D): 3200 nM
CC50 (T47D; [4]): > 100000 nM
GI50 (NCI-H322M): 1100 nM
LC50 (concentration killing 50% of cells) (NCI-H322M): 4700 nM
TGI (NCI-H322M): 2200 nM
GI50 (RXF 393): 2400 nM
LC50 (RXF 393): 45200 nM
TGI (RXF 393): 6900 nM
GI50 (SF-539): 1100 nM
TGI (SF-539): 2700 nM
CC50 (SF-539; [4]): 6400 nM
GI50 (SNB-19): 1600 nM
TGI (SNB-19): 3300 nM
CC50 (SNB-19; [4]): 7000 nM
MIC (Escherichia coli): >60 µg
GI50 (NCI-H522): 1100 nM
TGI (NCI-H522): 2400 nM
CC50 (NCI-H522; [4]): 5200 nM
GI50 (OVCAR-4): 1300 nM
LC50 (OVCAR-4): 5600 nM
TGI (OVCAR-4): 2700 nM
GI50 (K562): 1200 nM
LC50 (concentration killing 50% of cells) (K562): 4900 nM
TGI (K562): 2400 nM
GI50 (CAKI-1): 1500 nM
TGI (CAKI-1): 3300 nM
CC50 (CAKI-1; [4]): 7400 nM
GI50 (IGROV-1): 1000 nM
TGI (IGROV-1): 2500 nM
CC50 (IGROV-1; [4]): 6000 nM
GI50 (SF-295): 300 nM
LC50 (concentration killing 50% of starting cells) (SF-295): 4000 nM
TGI (SF-295): 1600 nM
GI50 (BT-549): 1500 nM
TGI (BT-549): 2900 nM
CC50 (BT-549; [4]): 5600 nM
GI50 (SK-MEL-5): 100 nM
TGI (SK-MEL-5): 300 nM
CC50 (SK-MEL-5; [4]): 500 nM
GI50 (M14): 100 nM
LC50 (concentration killing 50% of cells) (M14): 500 nM
TGI (M14): 200 nM
GI50 (ACHN): 1100 nM
TGI (ACHN): 2900 nM
CC50 (ACHN; [4]): 7800 nM
GI50 (CCRF-CEM): 1700 nM
TGI (CCRF-CEM): 5200 nM
CC50 (CCRF-CEM; [4]): > 100000 nM
GI50 (NCI-H460): 200 nM
LC50 (concentration causing 50% cell kill) (NCI-H460): 5500 nM
TGI (NCI-H460): 800 nM
GI50 (Malme-3M): 30 nM
TGI (Malme-3M): 100 nM
CC50 (Malme-3M; [4]): 300 nM
GI50 (UACC-257): 200 nM
TGI (UACC-257): 700 nM
CC50 (UACC-257; [4]): 2900 nM
GI50 (HCT-116): 500 nM
LC50 (HCT-116): 4000 nM
TGI (HCT-116): 1600 nM
GI50 (MCF7): 1000 nM
TGI (MCF7): 3300 nM
CC50 (MCF7; [4]): > 100000 nM
GI50 (A549): 200 nM
LC50 (50% cell kill concentration) (A549): 1800 nM
TGI (A549): 500 nM
GI50 (SNB-75): 200 nM
TGI (SNB-75): 900 nM
CC50 (SNB-75; [4]): 5300 nM
GI50 (786-0): 1800 nM
LC50 (concentration killing 50% of cells) (786-0): 17900 nM
TGI (786-0): 5000 nM
GI50 (HOP-92): 1700 nM
TGI (HOP-92): 3800 nM
CC50 (HOP-92; [4]): 8800 nM
GI50 (MDA-MB-231): 3300 nM
TGI (MDA-MB-231): 29600 nM
CC50 (MDA-MB-231; [4]): > 100000 nM
GI50 (UACC-62): 200 nM
LC50 (50% cell kill) (UACC-62): 4100 nM
TGI (UACC-62): 600 nM
GI50 (MDA-MB-435): 200 nM
TGI (MDA-MB-435): 300 nM
CC50 (MDA-MB-435; [4]): 600 nM
MIC (Candida albicans): >60 µg
GI50 (SK-MEL-28): 1000 nM
TGI (SK-MEL-28): 2600 nM
CC50 (SK-MEL-28; [4]): 6700 nM
GI50 (SK-OV-3): 2700 nM
TGI (SK-OV-3): 13800 nM
CC50 (SK-OV-3; [4]): 47100 nM
GI50 [3]: 5100 nM
TGI [3]: > 100000 nM
CC50 [3, 4]: > 100000 nM
